Assay: xn = mol fraction of the nth substance listed

NC=O + CCO
Conditions | viscosity [mPa·s]
293.15 K, 101 kPa, x1 = 0.0698 | 1.251
298.15 K, 100 kPa, x1 = 0.08099 | 1.17
298.15 K, 100 kPa, x1 = 0.141 | 1.24
298.15 K, 100 kPa, x1 = 0.1644 | 1.27
298.15 K, 100 kPa, x1 = 0.2196 | 1.37
298.15 K, 100 kPa, x1 = 0.25 | 1.43
298.15 K, 100 kPa, x1 = 0.2924 | 1.5
298.15 K, 100 kPa, x1 = 0.3698 | 1.66
298.15 K, 100 kPa, x1 = 0.4031 | 1.73
298.15 K, 100 kPa, x1 = 0.4124 | 1.74
298.15 K, 100 kPa, x1 = 0.5124 | 1.98
298.15 K, 100 kPa, x1 = 0.5644 | 2.11
298.15 K, 100 kPa, x1 = 0.6278 | 2.29
298.15 K, 100 kPa, x1 = 0.7077 | 2.5
298.15 K, 100 kPa, x1 = 0.7726 | 2.67
298.15 K, 100 kPa, x1 = 0.8608 | 2.91
298.15 K, 100 kPa, x1 = 0.9558 | 3.19
298.15 K, 101 kPa, x1 = 0.0698 | 1.152
298.15 K, 101 kPa, x1 = 0.1005 | 1.229
298.15 K, 101 kPa, x1 = 0.1991 | 1.376
298.15 K, 101 kPa, x1 = 0.3014 | 1.563
298.15 K, 101 kPa, x1 = 0.4071 | 1.816
298.15 K, 101 kPa, x1 = 0.4991 | 2.01
298.15 K, 101 kPa, x1 = 0.6093 | 2.259
298.15 K, 101 kPa, x1 = 0.7024 | 2.515
298.15 K, 101 kPa, x1 = 0.8108 | 2.782
298.15 K, 101 kPa, x1 = 0.9 | 3.054
303.15 K, 101 kPa, x1 = 0.0698 | 1.043
303.15 K, 101.3 kPa, x1 = 0.0716 | 0.97
303.15 K, 101.3 kPa, x1 = 0.1365 | 1.03
303.15 K, 101.3 kPa, x1 = 0.2357 | 1.1
303.15 K, 101.3 kPa, x1 = 0.3142 | 1.3
303.15 K, 101.3 kPa, x1 = 0.3842 | 1.4
303.15 K, 101.3 kPa, x1 = 0.4597 | 1.5
303.15 K, 101.3 kPa, x1 = 0.5389 | 1.6
303.15 K, 101.3 kPa, x1 = 0.609 | 1.8
303.15 K, 101.3 kPa, x1 = 0.6872 | 1.9
303.15 K, 101.3 kPa, x1 = 0.7741 | 2.1
303.15 K, 101.3 kPa, x1 = 0.7928 | 2.2
303.15 K, 101.3 kPa, x1 = 0.926 | 2.6
308.15 K, 101 kPa, x1 = 0.0698 | 0.9456
308.15 K, 101.3 kPa, x1 = 0.0716 | 0.89
308.15 K, 101.3 kPa, x1 = 0.1365 | 0.93
308.15 K, 101.3 kPa, x1 = 0.2357 | 1.05
308.15 K, 101.3 kPa, x1 = 0.3142 | 1.1
308.15 K, 101.3 kPa, x1 = 0.3842 | 1.2
308.15 K, 101.3 kPa, x1 = 0.4597 | 1.3
308.15 K, 101.3 kPa, x1 = 0.5389 | 1.5
308.15 K, 101.3 kPa, x1 = 0.609 | 1.5
308.15 K, 101.3 kPa, x1 = 0.6872 | 1.7
308.15 K, 101.3 kPa, x1 = 0.7741 | 1.8
308.15 K, 101.3 kPa, x1 = 0.7928 | 1.9
308.15 K, 101.3 kPa, x1 = 0.926 | 2.3
313.15 K, 101 kPa, x1 = 0.0698 | 0.8712
313.15 K, 101 kPa, x1 = 0.1005 | 0.916
313.15 K, 101 kPa, x1 = 0.1991 | 1.016
313.15 K, 101 kPa, x1 = 0.3014 | 1.145
313.15 K, 101 kPa, x1 = 0.4071 | 1.319
313.15 K, 101 kPa, x1 = 0.4991 | 1.465
313.15 K, 101 kPa, x1 = 0.6093 | 1.622
313.15 K, 101 kPa, x1 = 0.7024 | 1.8
313.15 K, 101 kPa, x1 = 0.8108 | 1.986
313.15 K, 101 kPa, x1 = 0.9 | 2.174
313.15 K, 101.3 kPa, x1 = 0.0716 | 0.8
313.15 K, 101.3 kPa, x1 = 0.1365 | 0.85
313.15 K, 101.3 kPa, x1 = 0.2357 | 0.95
313.15 K, 101.3 kPa, x1 = 0.3142 | 1.04
313.15 K, 101.3 kPa, x1 = 0.3842 | 1.1
313.15 K, 101.3 kPa, x1 = 0.4597 | 1.2
313.15 K, 101.3 kPa, x1 = 0.5389 | 1.3
313.15 K, 101.3 kPa, x1 = 0.609 | 1.4
313.15 K, 101.3 kPa, x1 = 0.6872 | 1.5
313.15 K, 101.3 kPa, x1 = 0.7741 | 1.7
313.15 K, 101.3 kPa, x1 = 0.7928 | 1.7
313.15 K, 101.3 kPa, x1 = 0.926 | 2
318.15 K, 101 kPa, x1 = 0.0698 | 0.8052
318.15 K, 101.3 kPa, x1 = 0.0716 | 0.73
318.15 K, 101.3 kPa, x1 = 0.1365 | 0.77
318.15 K, 101.3 kPa, x1 = 0.2357 | 0.86
318.15 K, 101.3 kPa, x1 = 0.3142 | 0.94
318.15 K, 101.3 kPa, x1 = 0.3842 | 1.02
318.15 K, 101.3 kPa, x1 = 0.4597 | 1.1
318.15 K, 101.3 kPa, x1 = 0.5389 | 1.2
318.15 K, 101.3 kPa, x1 = 0.609 | 1.2
318.15 K, 101.3 kPa, x1 = 0.6872 | 1.3
318.15 K, 101.3 kPa, x1 = 0.7741 | 1.5
318.15 K, 101.3 kPa, x1 = 0.7928 | 1.5
318.15 K, 101.3 kPa, x1 = 0.926 | 1.8
323.15 K, 101.3 kPa, x1 = 0.0716 | 0.64
323.15 K, 101.3 kPa, x1 = 0.1365 | 0.68
323.15 K, 101.3 kPa, x1 = 0.2357 | 0.75
323.15 K, 101.3 kPa, x1 = 0.3142 | 0.83
323.15 K, 101.3 kPa, x1 = 0.3842 | 0.89
323.15 K, 101.3 kPa, x1 = 0.4597 | 0.93
323.15 K, 101.3 kPa, x1 = 0.5389 | 0.98
323.15 K, 101.3 kPa, x1 = 0.609 | 1.04
323.15 K, 101.3 kPa, x1 = 0.6872 | 1.1
323.15 K, 101.3 kPa, x1 = 0.7741 | 1.2
323.15 K, 101.3 kPa, x1 = 0.7928 | 1.2
323.15 K, 101.3 kPa, x1 = 0.926 | 1.5

From the CheMixHub viscosity set
